“And” between values parts separate entries of the source, which are not always exact repeats. Equal values may be shown once. Read-outs that look alike come from different tables or passages of the source. Marks after values point to notes of the source that are not given here.
Legend:
[1] = test system: T. b. brucei Lister 427WT; assay: Drug susceptibility test (resazurin), Lister 427WT; assay type: cell-based, Trypanosoma brucei brucei; conditions: Trypanosoma brucei
Procedure: (§1) Drug susceptibility tests with Lister 427WT, TbAT1-KO[48], B48[26] and ISMR1[27] were performed using an assay based on the viability indicator dye resazurin in 96-well plates, each well containing 2 × 10^4 cells. The plates were incubated for 48 h with a doubling dilution series of the test compounds in HMI-9/fetal bovine serum at 37 °C/5% CO2 (23 dilutions starting at 100 µM, except for the pentamidine control (50 µM)), after which resazurin (20 µL of 125 µg mL^−1 resazurin sodium salt solution was added to each well (containing 200 µL of cells and test compound)) was added to each well and the plates incubated for another 24 h. Fluorescence was determined using a FLUOstar Optima (BMG Labtech, Durham, NC) and the results fitted to a sigmoid curve with variable slope using Prism 5.0 or Prism 7.04 (GraphPad, San Diego, CA).

[2] = test system: ISMR1: isometamidium-resistant T. brucei cell line; assay: microbe, parasite or virus in culture; assay type: cell-based, Trypanosoma brucei brucei; conditions: for EC50: Trypanosoma brucei; for RF (ISMR1): resistance factor vs Lister 427WT
Procedure: as §1

[3] = test system: TbAT1-KO: T. brucei cell line lacking the TbAT1(P2) transporter gene; assay: microbe, parasite or virus in culture; assay type: cell-based, Trypanosoma brucei brucei; conditions: for EC50: Trypanosoma brucei; for RF (TbAT1-KO): resistance factor: ratio of EC50 of resistant and Lister 427WT
Procedure: as §1

[4] = test system: B48: pentamidine, diminazene and melaminophenyl arsenical resistant T. brucei line; assay: microbe, parasite or virus in culture; assay type: cell-based, Trypanosoma brucei brucei; conditions: for EC50: Trypanosoma brucei; for RF (B48): resistance factor vs Lister 427WT
[5] = test system: T. b. brucei AnTAR1.1 PPYRE9; assay: Mouse model of stage 2 HAT (BLI, parasitaemia, SL-RNA qPCR); assay type: in vivo; conditions: for BLI of the head region, RLU data: individual animals; for RLU data, individual mice: Melarsoprol
Procedure: […] Treatment was initiated at 21 dpi. […] Mice were injected i.p. with […] of D-luciferin and anaesthetised using isoflurane. The luminescent signal was acquired from both the dorsal and ventral side of the animals. […] Animals subjected to the different treatment schemes (from 4 wpi) were additionally imaged over a 5 min exposure time for enhanced sensitivity. […] Tissues were weighed and RNA was extracted using the RNeasy Plus Mini Kit (Qiagen) according to the manufacturer’s recommendations. […] A list of primers used is provided in the Supplementary Methods section of the Supplementary Information. BLI images from the IVIS Spectrum In Vivo Imaging System (Perkin Elmer) were analysed using LivingImage v4.3.1. SoftWoRx suite 2.0 for microscopy (image deconvolution), then processing using the Fiji software.

[6] = test system: Lister 427WT T. b. brucei; assay: Adenosine deaminase susceptibility (drug sensitivity with/without 2 µM deoxycoformycin); assay type: cell-based, Trypanosoma brucei brucei
Procedure: as §1, with “CA). […]” for “CA).”
Adenosine deaminase susceptibility
in the presence or absence of 2 µM 2’-deoxycoformycin. […]

[7] = test system: T. b. brucei Squib 427; assay: Mouse model of acute HAT; conditions: Suramin 10 mg/kg sid IP
Procedure: Drinking water and food were available ad libitum throughout the experiment. […] The reference drug suramin was formulated in phospahte-buffered saline (PBS) at 2.5 mg mL^−1 and administered s.i.d. i.p. for 5 days at 10 mg kg^−1 (n = 3). All treatments were initiated 30 min prior to the i.p. infection. […] Parasitaemia was determined by microscopic evaluation of tail vein blood samples at 4, 7, 10, 14 and 21 dpi (pre-set endpoint). As a test of cure, blood samples (250 µL) were collected from treated mice at 21 dpi and were sub-inoculated i.p. in naive Swiss mice (n = 3), followed by monitoring of parasitaemia as follow-up.

[8] = source data, read-out: s427 EC50, AVG
[9] = mean and SEM, n = 3, read-out: ISMR1 EC50
[10] = source data, read-out: ISMR1 EC50, AVG
[11] = read-out: TbAT1-KO EC50, mean and SEM, n = 3
[12] = mean and SEM, n = 3, read-out: B48 EC50
[13] = source data, read-out: B48 EC50, AVG

CC[n+]1c(-c2ccccc2)c2cc(N/N=N/c3cccc(C(=N)N)c3)ccc2c2ccc(N)cc21 [Isometamidium, reference compound]
EC50 ([1]; read-out: Lister 427 EC50, mean and SEM, n = 3): 650 ± 85 nM
EC50 [1, 8]: 758 nM
EC50 [2, 9]: 3100 ± 500 nM
EC50 [2, 10]: 5050 nM
RF (ISMR1) [2]: 4.8***
EC50 ([3]; read-out: TbAT1-KO EC50, AVG, source data): 736 nM
EC50 [3, 11]: 750 ± 140 nM
RF (TbAT1-KO) [3]: 1.2
EC50 [4, 12]: 560 ± 130 nM
EC50 [4, 13]: 514 nM
RF (B48) [4]: 0.85

Nc1nc(N)nc(Nc2ccc([As]3SCC(CO)S3)cc2)n1 (stereo not shown) [Melarsoprol, reference compound]
BLI of the head region, RLU data ([5]; 3 wpi (start of treatment, 21 dpi)): 20700000 RLU and 53700000 RLU
BLI of the head region, RLU data ([5]; 4 wpi): 96900 RLU and 114000 RLU
BLI of the head region, RLU data ([5]; 5 wpi): 83900 RLU and 96500 RLU
BLI of the head region, RLU data ([5]; 6 wpi): 85000 RLU and 111000 RLU
BLI of the head region, RLU data ([5]; 7 wpi): 90100 RLU and 74800 RLU
BLI of the head region, RLU data ([5]; 8 wpi): 81700 RLU and 77100 RLU
BLI of the head region, RLU data ([5]; 9 wpi): 73000 RLU and 85000 RLU
RLU data, individual mice ([5]; 3 wpi): 133100000 RLU and 14890000 RLU
RLU data, individual mice ([5]; 4 wpi): 121700 RLU and 135100 RLU
RLU data, individual mice ([5]; 5 wpi): 112200 RLU and 109500 RLU
RLU data, individual mice ([5]; 6 wpi): 106700 RLU and 93980 RLU
RLU data, individual mice ([5]; 7 wpi): 99910 RLU and 79400 RLU
RLU data, individual mice ([5]; 8 wpi): 117400 RLU and 101400 RLU
RLU data, individual mice ([5]; 9 wpi): 93050 RLU and 80330 RLU
RLU data, individual mice ([5]; 11 wpi): 77170 RLU and 73440 RLU
RLU data, individual mice ([5]; 12 wpi): 62170 RLU and 64300 RLU
RLU data, individual mice ([5]; 14 wpi): 67840 RLU and 67090 RLU
parasite burdens in brain, spleen and fat by SL-RNA qPCR ([5]; tissues collected at 121 dpi): complete absence of parasite burdens
luminescent signal in the head region ([5]; to levels similar to a non-infected control mouse): rapid decline of the signal

N=C(N)c1ccc(OCCCCCOc2ccc(C(=N)N)cc2)cc1 [Pentamidine, reference compound]
EC50 ([1]; mean and SEM, n = 3, read-out: Lister 427 EC50): 11 ± 1 nM
EC50 [1, 8]: 9.93 nM
EC50 [2, 9]: 140 ± 40 nM
EC50 [2, 10]: 138 nM
RF (ISMR1) [2]: 13.8**
EC50 [3, 11]: 18 ± 2 nM
RF (TbAT1-KO) [3]: 1.8**
EC50 [4, 12]: 990 ± 160 nM
EC50 [4, 13]: 877 nM
RF (B48) [4]: 94.6***

Nc1ncnc2c1ccn2[C@@H]1O[C@H](CO)[C@@H](O)[C@H]1O [Tubercidin (6)]
EC50 ([6]; DCF +, single replicate, read-out: EC50): 173 nM and 283 nM and 470 nM
EC50 ([6]; DCF -, single replicate, read-out: EC50): 227 nM and 250 nM
EC50 ([6]; Trypanosoma brucei, DCF +, average of replicates, read-out: EC50 AVG): 309 nM
EC50 ([6]; Trypanosoma brucei, DCF +, read-out: EC50 Reported value): 310 ± 70 nM
EC50 ([6]; Trypanosoma brucei, DCF -, average of replicates, read-out: EC50 AVG): 223 nM
EC50 ([6]; Trypanosoma brucei, DCF -, read-out: EC50 Reported value): 220 ± 10 nM
EC50 ([6]; Trypanosoma brucei, DCF -, single replicate, read-out: EC50): 194 nM

Cc1ccc(C(=O)Nc2ccc(S(=O)(=O)O)c3cc(S(=O)(=O)O)cc(S(=O)(=O)O)c23)cc1NC(=O)c1cccc(NC(=O)Nc2cccc(C(=O)Nc3cc(C(=O)Nc4ccc(S(=O)(=O)O)c5cc(S(=O)(=O)O)cc(S(=O)(=O)O)c45)ccc3C)c2)c1 [suramin, reference compound]
parasitaemia, individual mice ([7]; 4 dpi): 0
parasitaemia, individual mice ([7]; 7 dpi): 0
parasitaemia, individual mice ([7]; 10 dpi): 0
parasitaemia, individual mice ([7]; 14 dpi): 0
parasitaemia, individual mice ([7]; 21 dpi): 0
